Measurements: publication PMC12250965, “Design and Synthesis of Sulfonium and Selenonium Derivatives Bearing 3′,5′-O-Benzylidene Acetal Side Chain Structure as Potent α-Glucosidase Inhibitors” (Molecules, 2025)
Entries after “also recorded” stand apart in the source; their conditions may differ. Where two headings read alike, the source gives them in different places.

Experiments:
LO2 = experiment: Cytotoxicity against normal cell line LO2; format: cell-based; details: Homo sapiens, L02
Protocol: (§1) The cytotoxicity of selected sulfonium salts (20a, 20c, and 10) was then evaluated via the 3-[4,5-dimethylthiazol-2-yl]-2,5-diphenyl-tetrazolium bromide (MTT) assay against different cell lines.
(§2) Compounds HELF LO2 Primary Hepatocyte
(§3) (1 picture or pasted object on this page, not shown here)

Primary Hepatocyte = experiment: Cytotoxicity against Primary Hepatocyte; format: cell-based
Protocol: as §1, §2, §3

rat intestinal maltase [1] = experiment: Inhibition-kinetic study (Lineweaver–Burk), maltase; format: biochemical; details: for type of inhibition, maltase: Lineweaver–Burk plots; for Ki Maltase (Km = 3.0 mM): small intestinal α-glucosidase, Lineweaver–Burk
Protocol: (§4) In order to explore the inhibitory mechanism of the α-glucosidase by this family of compounds, enzyme kinetic assays were conducted on 20a, 20c, and 10, followed by a detailed kinetic analysis using the Lineweaver–Burk plots. (Figure 3) The small intestinal brush border membrane vesicles were incubated with varying concentrations of maltose (3.27 mg/mL) for maltase assays and sucrose (52.37 mg/mL) for sucrase assays.
(§5) For kinetic analyses of maltase and sucrase by compounds (20a, 20c, and 10), the enzyme and test samples (1.0 mg/mL for maltase and 0.2 mg/mL for sucrase) were incubated with increasing concentrations of maltose (2.5, 5, 10, 20, 50, 100 μM) and sucrose (5, 10, 20, 50, 100, 1000 μM) at 37 °C for 30 min. The tube was immediately immersed in boiling water for 2 min to stop the reaction, then cooled with water. The glucose concentration was determined by the glucose-oxidase method. […] The Lineweaver–Burk equation follows as: 1/V=Km/Vmax×[…]
(§6) Ki values for each inhibitor were determined by the equation: Ki=[I]×Km/[[…]−Km]

rat intestinal sucrase [2] = target: T1, rat intestinal sucrase (Rattus norvegicus, UniProt P23739); experiment: In vitro α-glucosidase inhibition assay, rat intestinal sucrase; format: biochemical
T1 construct: rat small intestinal brush border membrane vesicles were first prepared; from tissue; host or cells: rat small intestine, brush border membrane vesicles
Protocol: (§7) The testing method previously described was modified and used. Thus, rat small intestinal brush border membrane vesicles were first prepared, and its suspension in 0.1 M maleate buffer (pH = 6.0) was used as small intestinal α-glucosidases of maltase and sucrase. A test compound was dissolved in dimethylsulfoxide (DMSO), and the resulting solution was diluted with 0.1 M maleate buffer to prepare the test compound solution (concentration of DMSO: 10%). The substrate solution in maleate buffer ([…], 50 μL), a test compound solution (25 μL), and the enzyme solution (25 μL) were mixed and incubated at 37 °C for 30 min. After incubation, the solution was immediately heated by boiling water for 2 min to stop the reaction, and the solution was mixed with water (150 μL). Glucose concentration was determined by the glucose-oxidase method. […] The IC50 value was determined graphically by a plot of percent inhibition versus log of the test compound.

rat intestinal sucrase [3] = target: T1, rat intestinal sucrase; experiment: Inhibition-kinetic study (Lineweaver–Burk), sucrase; format: biochemical; details: for type of inhibition, sucrase: Lineweaver–Burk plots
Protocol: as §4, §5, §6

[4] = tested on: HELF, a human embryonic lung fibroblast cell line; experiment: MTT cytotoxicity assay on HELF cells; format: cell-based; details: for IC50: Homo sapiens, HELF, read-out: IC50 against normal cell line HELF; for cytotoxicity (MTT assay): different cell lines
Protocol: as §1
Briefly, the HELF-adherent cells were cultured in a 96-well plate overnight in a CO2 environment at 37 °C. Supernatant was removed, and 100 μL serially diluted compounds with complete medium DMEM supplemented with 10% (v/v) fetal bovine serum, penicillin (100 units/mL), and streptomycin (100 μg/mL) were added to each well. After the incubation, the culture medium was aspirated carefully, and 50 μL of MTT solution (2mg/mL PBS) was added to each well and further incubated for 4h. After this, MTT solution was aspirated, and cells were PBS-washed once, and 100 μL of DMSO was added to dissolve the blue insoluble MTT formazan produced by the action of mitochondrial dehydrogenase. The plate was agitated at room temperature for 15 min and then read at 570 nm by using a microplate reader. The percentage of viable cells was calculated as the relative ratio of optical densities.

rat intestinal maltase [5] = experiment: In vitro α-glucosidase inhibition assay, rat intestinal maltase; format: biochemical; details: for IC50: rat small intestinal brush border membrane vesicles, maltose substrate, mean ± SD (n = 3), read-out: IC50 against maltase
Protocol: as §7

sucrose-loaded mice = experiment: Sucrose loading test (hypoglycemic effect); format: in vivo, ICR mice; details: sucrose loading […] p.o.
Protocol: Research has shown a strong association between the 2 h postprandial blood glucose level and the risk of cardiovascular events, diabetic microvascular complications such as retinopathy, and the progression of macrovascular diseases. […] Considering this underlying pathological process, α-glucosidase inhibitors, which efficiently regulate postprandial glucose fluctuations, hold significant therapeutic promise for alleviating diabetes-related complications. […] Subsequently, doses were reduced to 1.0 mg/kg.
(§8) The animal experimental protocols in this study were approved by the Experimental Animal Center of Shanghai Institute of Materia Medica (Shanghai, China). Male ICR (Institute of Cancer Research) mice (29−33 g) after an overnight fast were used for acute maltose and sucrose loading tests. In the maltose loading test, maltose (2.0 mpk of body weight) and the inhibitors and voglibose were dissolved in distillation−distillation water and administered to the mice via a stomach tube. A control group was loaded with distillation−distillation water. In the sucrose loading test, sucrose (2.5 g/kg of body weight) and the inhibitor miglitol were dissolved in distillation−distillation water and administered to the mice via a stomach tube. A control group was loaded with distillation−distillation water. Blood samples for glucose measurements were obtained from the tail vein at 0, 15, 30, 60, and 120 min after maltose and sucrose loading. The blood glucose levels were measured by a portable kit, StatStrip Xpress (Nova Biomedical Co., Ltd., Waltham, MA, USA). The AUC over was calculated by the trapezoidal method.

maltose-loaded mice = experiment: Maltose loading test (hypoglycemic effect); format: in vivo, ICR mice; details: maltose loading 2.0 g/kg, 1.0 mpk
Protocol: A maltose loading test on compounds 10, 20c, neoponkoranol, and positive control (voglibose) was conducted to further evaluate their in vivo hypoglycemic effects against maltase.
as §8, with “In the maltose loading test, maltose (2.0 mpk of body weight) and the inhibitors and voglibose were dissolved in distillation−distillation water and administered to the mice via a stomach tube.” left out

rat intestinal sucrase [6] = target: T1, rat intestinal sucrase; details: read-out: IC50 against sucrase (converted), cited from earlier work
rat intestinal maltase [7] = details: read-out: IC50 against maltase (converted), cited from earlier work
[8] = rat small intestinal brush border membrane vesicles, sucrose substrate, mean ± SD (n = 3), read-out: IC50 against sucrase

T1 sequence (P23739 whole entry): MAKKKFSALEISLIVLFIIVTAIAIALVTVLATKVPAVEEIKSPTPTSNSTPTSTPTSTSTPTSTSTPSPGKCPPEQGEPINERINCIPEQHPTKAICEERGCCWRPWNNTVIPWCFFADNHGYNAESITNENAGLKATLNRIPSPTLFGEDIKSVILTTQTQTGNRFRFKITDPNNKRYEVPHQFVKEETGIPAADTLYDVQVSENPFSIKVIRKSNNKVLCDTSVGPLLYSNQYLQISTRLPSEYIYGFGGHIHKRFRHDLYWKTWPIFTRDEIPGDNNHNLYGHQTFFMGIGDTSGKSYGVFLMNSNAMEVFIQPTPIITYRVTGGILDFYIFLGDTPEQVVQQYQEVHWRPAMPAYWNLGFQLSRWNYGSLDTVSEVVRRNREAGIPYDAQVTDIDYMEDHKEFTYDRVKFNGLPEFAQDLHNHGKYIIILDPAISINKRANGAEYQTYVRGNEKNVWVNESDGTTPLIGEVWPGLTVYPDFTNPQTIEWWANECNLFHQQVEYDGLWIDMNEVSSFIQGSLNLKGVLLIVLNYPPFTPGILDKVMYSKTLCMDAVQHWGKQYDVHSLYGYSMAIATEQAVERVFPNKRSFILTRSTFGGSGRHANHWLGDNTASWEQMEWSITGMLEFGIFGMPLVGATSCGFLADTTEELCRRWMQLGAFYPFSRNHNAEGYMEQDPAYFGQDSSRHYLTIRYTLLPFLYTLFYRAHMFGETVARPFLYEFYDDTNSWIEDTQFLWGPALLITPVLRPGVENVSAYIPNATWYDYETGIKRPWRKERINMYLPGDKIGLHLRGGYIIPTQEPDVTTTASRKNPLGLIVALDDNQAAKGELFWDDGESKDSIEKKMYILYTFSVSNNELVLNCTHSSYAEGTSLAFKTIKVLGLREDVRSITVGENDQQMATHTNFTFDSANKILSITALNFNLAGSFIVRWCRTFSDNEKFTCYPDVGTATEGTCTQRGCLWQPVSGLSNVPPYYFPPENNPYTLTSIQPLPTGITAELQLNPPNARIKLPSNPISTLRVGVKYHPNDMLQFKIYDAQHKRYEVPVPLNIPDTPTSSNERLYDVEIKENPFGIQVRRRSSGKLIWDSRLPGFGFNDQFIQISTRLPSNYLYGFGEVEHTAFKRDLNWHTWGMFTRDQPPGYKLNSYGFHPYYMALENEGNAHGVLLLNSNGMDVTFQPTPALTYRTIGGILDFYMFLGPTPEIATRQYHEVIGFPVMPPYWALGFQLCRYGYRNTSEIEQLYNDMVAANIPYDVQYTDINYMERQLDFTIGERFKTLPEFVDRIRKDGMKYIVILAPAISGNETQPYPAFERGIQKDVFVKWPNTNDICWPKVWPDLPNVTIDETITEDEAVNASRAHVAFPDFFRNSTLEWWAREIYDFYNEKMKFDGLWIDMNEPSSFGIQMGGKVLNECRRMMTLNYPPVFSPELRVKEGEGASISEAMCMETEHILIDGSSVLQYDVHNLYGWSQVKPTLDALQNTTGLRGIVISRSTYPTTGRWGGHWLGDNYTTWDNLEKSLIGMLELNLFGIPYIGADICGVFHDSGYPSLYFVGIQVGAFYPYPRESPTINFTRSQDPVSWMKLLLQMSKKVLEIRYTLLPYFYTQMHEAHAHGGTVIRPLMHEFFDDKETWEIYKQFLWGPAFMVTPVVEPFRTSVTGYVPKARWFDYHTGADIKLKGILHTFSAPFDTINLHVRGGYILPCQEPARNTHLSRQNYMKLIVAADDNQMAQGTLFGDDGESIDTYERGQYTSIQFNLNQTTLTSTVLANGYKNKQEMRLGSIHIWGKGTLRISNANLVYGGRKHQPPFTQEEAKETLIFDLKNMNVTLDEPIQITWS

IC50 (rat intestinal sucrase [2]; [8])	SMILES	IC50 (LO2)	IC50 (Primary Hepatocyte)	type of inhibition, maltase (rat intestinal maltase [1])	Ki Maltase (Km = 3.0 mM) (rat intestinal maltase [1])	IC50 (rat intestinal sucrase [2])	Ki (rat intestinal sucrase [3])	type of inhibition, sucrase (rat intestinal sucrase [3])	IC50 [4]	cytotoxicity (MTT assay) [4]	IC50 (rat intestinal maltase [5])	Declined Rate of Blood Glucose Levels, 15 min (sucrose-loaded mice; 1.0 mpk)	Declined Rate of Blood Glucose Levels, 30 min (sucrose-loaded mice; 1.0 mpk)	Declined Rate of Blood Glucose Levels, 60 min (sucrose-loaded mice; 1.0 mpk)	Declined Rate of AUC (sucrose-loaded mice; 1.0 mpk)	Declined Rate of Blood Glucose Levels, 60 min (maltose-loaded mice; 1 mg/kg)	Declined Rate of AUC (maltose-loaded mice; 1 mg/kg)	further results
–	OC[C@@H]1[C@@H](O)[C@H](O)C[Se@+]1C[C@@H](O)[C@H]1OC(c2cc(Cl)ccc2Cl)OC[C@H]1O.[Cl-] (stereo partly drawn) [20c, (1S,2R,3S,4S)-1-((2S)-2-((4S,5R)-2-(2,5-Dichlorophenyl)-5-hydroxy-1,3-dioxan-4-yl)-2-hydroxyethyl)-3,4-dihydroxy-2-(hydroxymethyl)tetrahydro-1H-selenophen-1-ium chloride]	> 500000 nM	> 500000 nM	fully competitive	0.67 µg/mL	50 ± 20 nM	381 nM	fully competitive	> 500000 nM	low toxicity; also recorded: non-toxic	140 ± 50 nM	40.0%	40.3%	38.2%	34.00%	43.5%	40.2%	fold greater potency than acarbose, sucrase (rat intestinal sucrase [2]; IC50 ratio vs acarbose): 44 fold; fold greater potency than acarbose, maltase (rat intestinal maltase [5]; IC50 ratio vs acarbose): 25 fold; Declined Rate of Blood Glucose Levels, 15 min (sucrose-loaded mice; 10.0 mpk, 10 mg/kg): 48.6%; Declined Rate of Blood Glucose Levels, 30 min (sucrose-loaded mice; 10.0 mpk, 10 mg/kg): 52.8%; Declined Rate of Blood Glucose Levels, 60 min (sucrose-loaded mice; 10.0 mpk, 10 mg/kg): 48.1%; Declined Rate of AUC (sucrose-loaded mice; 10.0 mpk, 10 mg/kg): 46.4%; Declined Rate of Blood Glucose Levels, 15 min (maltose-loaded mice): 45.8%; Declined Rate of Blood Glucose Levels, 30 min (maltose-loaded mice): 47.4%
2800 ± 500 nM	OC[C@@H]1[C@@H](O)[C@H](O)C[S@@+]1C[C@@H](O)[C@@H](O)[C@H](O)[C@@H](O)CO [neoponkoranol]	–	–	–	–	–	–	–	–	–	7300 ± 1500 nM	33.5%	36.4%	27.1%	27.1%	19.4%	21.5%	IC50 (rat intestinal sucrase [6]; literature value ^[a]): 2300 nM; Declined Rate of Blood Glucose Levels, 15 min (sucrose-loaded mice; 10.0 mpk): 42.8%; Declined Rate of Blood Glucose Levels, 30 min (sucrose-loaded mice; 10.0 mpk): 49.5%; Declined Rate of Blood Glucose Levels, 60 min (sucrose-loaded mice; 10.0 mpk): 43.5%; Declined Rate of AUC (sucrose-loaded mice; 10.0 mpk): 39.4%; IC50 (rat intestinal maltase [7]; literature value ^[a]): 6900 nM; Declined Rate of Blood Glucose Levels, 15 min (maltose-loaded mice; 1 mg/kg): 42.3%; Declined Rate of Blood Glucose Levels, 30 min (maltose-loaded mice; 1 mg/kg): 33.9%
550 nM	OCC1C(O)C(O)C[S+]1CC(O)C1OC(c2ccccc2F)OCC1O [19n, 1,4-Dideoxy-1,4-{(R)-[5-deoxy-1,3-O-(o-fluorophenylmethylene)-D-arabinitol-5-yl]episulfoniumylidene}-D-arabinitol chloride]	–	–	–	–	–	–	–	–	–	420 nM	–	–	–	–	–	–	IC50 (rat intestinal sucrase [6]; literature value): 840 nM; IC50 (rat intestinal maltase [7]; literature value): 400 nM
–	OC[C@@H]1[C@@H](O)[C@H](O)C[Se@+]1C[C@@H](O)[C@H]1OC(c2cccc(Cl)c2Cl)OC[C@H]1O.[Cl-] (stereo partly drawn) [20a, (1S,2R,3S,4S)-1-((2S)-2-((4S,5R)-2-(2,3-Dichlorophenyl)-5-hydroxy-1,3-dioxan-4-yl)-2-hydroxyethyl)-3,4-dihydroxy-2-(hydroxymethyl)tetrahydro-1H-selenophen-1-ium chloride]	> 500000 nM	> 500000 nM	fully competitive	0.94 µg/mL	190 ± 20 nM	934 nM	fully competitive	> 500000 nM	non-toxic	330 ± 150 nM	–	–	–	–	–	–	–
